Tests used:
PI3Kα = PI3Kα (Homo sapiens, UniProt P42336); test: Z'-LYTE / Adapta biochemical kinase assay, PI3Kα; conditions: for inhibition at 0.1 µM: concentration of 100 nM/liter, read-out: Percent Inhibition of target enzymes, PI3K A
Excerpt: The Z′-LYTE® biochemical assay employs a fluorescence-based, coupled-enzyme format and is based on the differential sensitivity of phosphorylated and non-phosphorylated peptides to proteolytic cleavage. The peptide substrate is labeled with two fluorophores—one at each end—that make up a FRET pair. In the primary reaction, the kinase transfers the gamma-phosphate of ATP to a single tyrosine, serine or threonine residue in a synthetic FRET-peptide. In the secondary reaction, a site-specific protease recognizes and cleaves non-phosphorylated FRET-peptides. Phosphorylation of FRET-peptides suppresses cleavage by the Development Reagent. Cleavage disrupts FRET between the donor (i.e., coumarin) and acceptor (i.e., fluorescein) fluorophores on the FRET-peptide, whereas uncleaved, phosphorylated FRET-peptides maintain FRET. A ratiometric method, which calculates the ratio (the Emission Ratio) of donor emission to acceptor emission after excitation of the donor fluorophore at 400 nm, is used to quantitate reaction progress.
A significant benefit of this ratiometric method for quantitating reaction progress is the elimination of well-to-well variations in FRET-peptide concentration and signal intensities. As a result, the assay yields very high Z′-factor values (>0.7) at a low percent phosphorylation.
Both cleaved and uncleaved FRET-peptides contribute to the fluorescence signals and therefore to the Emission Ratio. The extent of phosphorylation of the FRET-peptide can be calculated from the Emission Ratio. The Emission Ratio will remain low if the FRET-peptide is phosphorylated (i.e., no kinase inhibition) and will be high if the FRET-peptide is non-phosphorylated (i.e., kinase inhibition).
Enzyme: The ADAPTA universal kinase assay is a homogenous, fluorescent based immunoassay for the detection of ADP. In contrast to ATP depletion assays, the ADAPTA assay is extremely sensitive to ADP formation such that a majority of the signal change occurs in the first 10-20% conversion of ATP to ADP. This makes the ADAPTA universal kinase assay ideally suited for use with low activity kinases.
The principle of the ADAPTA universal kinase assay is outlined below. The assay itself can be divided into two phases: a kinase reaction phase, and an ADP detection phase. In the kinase reaction phase, all components required for the kinase reaction are added to the well, and the reaction is allowed to incubate for 60 minutes. After the reaction, a detection solution consisting of a europium labeled anti-ADP antibody, an Alexa Fluor® 647 labeled ADP tracer, and EDTA (to stop the kinase reaction) is added to the assay well. ADP formed by the kinase reaction (in the absence of an inhibitor) will displace the Alexa Fluor® 647 labeled ADP tracer from the antibody, resulting in a decrease in the TR-FRET signal. In the presence of an inhibitor, the amount of ADP formed by the kinase reaction is reduced, and the resulting intact antibody-tracer interaction results in a high TR-FRET signal.
Test Compounds: The Test Compounds are screened in 1% DMSO (final) in the well. For 10 point titrations, 3-fold serial dilutions are conducted from the starting concentration of the customer’s choosing.
Peptide/Kinase Mixtures: All Peptide/Kinase Mixtures are diluted to a 2X working concentration in the appropriate Kinase Buffer.
ATP Solution: All ATP Solutions are diluted to a 4X working concentration in Kinase Buffer (50 mM HEPES pH 7.5, 0.01% BRIJ-35, 10 mM MgCl2,1 mM EGTA). ATP Km apparent is previously determined using a Z′-LYTE® assay.
Development Reagent Solution: The Development Reagent is diluted in Development Buffer.
Assay Protocol: Bar-coded Corning, low volume NBS, black 384-wellplate (Corning Cat. #4514) 1. 2.5 µL - 4X Test Compound or 100 nL 100X plus 2.4 µL kinase buffer. 2. 5 µL - 2X Peptide/Kinase Mixture. 3. 2.5 µL - 4X ATP Solution. 4. 30-second plate shake. 5. 60-minute Kinase Reaction incubation at room temperature. 6. 5 µL - Development Reagent Solution. 7. […]

T-47D = test: NCI COMPARE panel (SRB growth inhibition), T-47D; format: cell-based; conditions: Homo sapiens, T47D, Breast Cancer, 48 h
Protocol: (§1) The human tumor cell lines of the cancer screening panel are grown in RPMI 1640 medium containing 5% fetal bovine serum and 2 mM L-glutamine. For a typical screening experiment, cells are inoculated into 96 well microtiter plates in 100 µL at plating densities ranging from 5,000 to 40,000 cells/well depending on the doubling time of individual cell lines. After cell inoculation, the microtiter plates are incubated at 37° C., 5% CO2, 95% air and 100% relative humidity for 24 h prior to addition of experimental drugs.
(§2) After 24 h, two plates of each cell line are fixed in situ with TCA, to represent a measurement of the cell population for each cell line at the time of drug addition (Tz). Experimental drugs are solubilized in dimethyl sulfoxide at 400-fold the desired final maximum test concentration and stored frozen prior to use. […]
(§3) Following drug addition, the plates are incubated for an additional 48 h at 37° C., 5 % CO2, 95% air, and 100% relative humidity. […] Bound stain is subsequently solubilized with 10 mM trizma base, and the absorbance is read on an automated plate reader at a wavelength of 515 nm. […] Using the seven absorbance measurements [time zero, (Tz), control growth, (C), and test growth in the presence of drug at the five concentration levels (Ti)], the percentage growth is calculated at each of the drug concentrations levels. Percentage growth inhibition is calculated as: […]

HCT-116 = test: NCI COMPARE panel (SRB growth inhibition), HCT-116; format: cell-based; conditions: Homo sapiens; Colon Cancer, HCT-116, 48 h
Protocol: as §1, §2, §3

CAKI-1 = test: NCI COMPARE panel (SRB growth inhibition), CAKI-1; format: cell-based; conditions: Homo sapiens; Renal Cancer, CAKI-1, 48 h
Protocol: as §1, §2, §3

PI3Kα, sequence (P42336 whole entry): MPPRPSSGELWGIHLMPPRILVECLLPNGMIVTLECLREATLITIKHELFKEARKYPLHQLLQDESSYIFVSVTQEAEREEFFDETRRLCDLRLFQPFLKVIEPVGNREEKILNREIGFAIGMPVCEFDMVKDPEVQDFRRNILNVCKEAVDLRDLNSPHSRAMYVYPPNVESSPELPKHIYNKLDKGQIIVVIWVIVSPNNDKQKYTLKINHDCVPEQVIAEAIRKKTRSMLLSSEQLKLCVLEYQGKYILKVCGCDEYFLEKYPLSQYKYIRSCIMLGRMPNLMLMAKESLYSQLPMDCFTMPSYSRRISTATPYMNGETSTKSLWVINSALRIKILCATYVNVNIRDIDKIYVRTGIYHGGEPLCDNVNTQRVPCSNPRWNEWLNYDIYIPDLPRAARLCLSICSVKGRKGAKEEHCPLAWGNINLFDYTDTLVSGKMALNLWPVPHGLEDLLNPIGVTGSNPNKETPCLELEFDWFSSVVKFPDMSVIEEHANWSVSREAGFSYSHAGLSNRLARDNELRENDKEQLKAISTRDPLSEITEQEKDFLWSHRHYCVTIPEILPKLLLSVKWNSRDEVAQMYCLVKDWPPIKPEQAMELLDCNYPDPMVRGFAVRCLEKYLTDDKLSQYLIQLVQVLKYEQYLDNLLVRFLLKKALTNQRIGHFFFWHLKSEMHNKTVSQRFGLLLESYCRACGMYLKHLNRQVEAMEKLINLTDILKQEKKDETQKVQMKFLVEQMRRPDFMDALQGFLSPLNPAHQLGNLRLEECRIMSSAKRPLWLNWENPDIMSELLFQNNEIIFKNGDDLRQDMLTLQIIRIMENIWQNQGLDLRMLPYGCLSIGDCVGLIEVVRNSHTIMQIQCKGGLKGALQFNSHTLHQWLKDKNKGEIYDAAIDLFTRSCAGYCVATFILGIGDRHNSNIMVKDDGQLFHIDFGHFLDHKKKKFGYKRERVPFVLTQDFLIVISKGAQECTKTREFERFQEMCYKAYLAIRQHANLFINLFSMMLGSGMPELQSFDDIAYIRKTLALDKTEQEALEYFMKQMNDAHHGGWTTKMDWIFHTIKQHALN
PI3Kα, sequence (P27986 whole entry partner): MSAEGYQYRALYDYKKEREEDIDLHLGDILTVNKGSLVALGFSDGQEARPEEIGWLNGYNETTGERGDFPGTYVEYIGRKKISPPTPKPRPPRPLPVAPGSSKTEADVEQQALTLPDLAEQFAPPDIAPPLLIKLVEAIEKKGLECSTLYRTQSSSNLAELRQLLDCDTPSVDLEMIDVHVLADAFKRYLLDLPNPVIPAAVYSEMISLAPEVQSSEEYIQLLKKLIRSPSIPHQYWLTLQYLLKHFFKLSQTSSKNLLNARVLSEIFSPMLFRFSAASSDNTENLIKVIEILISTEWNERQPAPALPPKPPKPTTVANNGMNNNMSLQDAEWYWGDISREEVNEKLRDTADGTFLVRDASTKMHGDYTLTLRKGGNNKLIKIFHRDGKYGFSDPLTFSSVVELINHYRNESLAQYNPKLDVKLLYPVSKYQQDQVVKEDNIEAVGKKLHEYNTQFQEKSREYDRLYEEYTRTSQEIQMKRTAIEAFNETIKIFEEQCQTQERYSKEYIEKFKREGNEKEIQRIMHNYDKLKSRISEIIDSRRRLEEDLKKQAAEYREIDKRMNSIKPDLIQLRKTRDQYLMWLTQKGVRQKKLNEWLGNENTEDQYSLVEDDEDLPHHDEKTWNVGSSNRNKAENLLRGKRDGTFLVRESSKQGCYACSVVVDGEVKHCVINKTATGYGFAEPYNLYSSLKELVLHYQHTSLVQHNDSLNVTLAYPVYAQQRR

Compound | IC50 (PI3Kα; PI3Kα) | inhibition at 0.1 µM (PI3Kα) | GI50 (T-47D) | GI50 (HCT-116) | GI50 (CAKI-1)
CS(=O)(=O)Nc1cc(-c2ccc3ncnc(Nc4cccc(Cl)c4F)c3c2)cnc1Cl [Compound 6, N-[2-chloro-5-[4-(3-chloro-2-fluoro-anilino)quinazolin-6-yl]-3-pyridyl] methanesulfonamide] | ≤ 2 nM | > 90% | ≤ 75 nM | 125 to 250 nM | ≤ 75 nM
CS(=O)(=O)Nc1cc(-c2ccc3ncc(C#N)c(Nc4cccc(Cl)c4F)c3c2)cnc1Cl [Compound 10, N-[2-chloro-5-[4-(3-chloro-2-fluoro-anilino)-3-cyano-6-quinolyl]-3-pyridyl]methanesulfonamide] | – | > 90% | 125 to 250 nM | ≤ 75 nM | ≤ 75 nM
